Legend:
P14 CD8+ T cells = assay: Flow cytometry of activated mouse CD8+ T cells treated with halofuginone (cytokines, surface markers, phosphoflow, autophagosome staining); assay type: cell-based; conditions: for IFN-γ in halo-treated cells: inhibitor concurrent with Halofuginone (3-MA 2.5 mM; Oligomycin 1 uM)
CD8+ T cells [1] = assay: Ribo-Seq / RNA-seq gene expression profiling of halo-treated CD8+ T cells; assay type: cell-based, mouse; conditions: halo vs vehicle
human CD8+ T cells = assay: Human CD8+ T cells activated in the presence of halofuginone (Seahorse, flow cytometry, DMF5 TCR transduction); assay type: cell-based
Protocol: Peripheral blood mononuclear cells were obtained from healthy donors following institutional review board approval. Written informed consent was obtained from all donors who provided the samples. PBMCs were magnetically sorted for naïve CD8+ T cells (Miltenyi Biotec) and activated with CD3/CD28 Dynabeads (Invitrogen) at 1:1 ratio in complete IMDM for 5 days in the presence of Halo (12.5 ng/mL) or vehicle control. For DMF5 TCR transduction, purified naïve CD8+ T cells were stimulated with CD3/CD28 Dynabeads at 1:1 ratio in complete IMDM media and 100 IU/ml recombinant human IL-2. Two days after stimulation, T cells were infection with PG13-derived virus encoding DMF5 TCR and a truncated NGFR tag, separated by 2A sequences. Halofuginone (12.5 ng/mL) or vehicle control was added on days 0 and 2. Phenotype was analyzed on day 5.

CD8+ T cells [2] = assay: Targeted mass spectrometry metabolic profile of halo-treated cells; assay type: cell-based, mouse; conditions: halo vs vehicle
Protocol: Seahorse was performed as previously described (Saibil et al., 2019). ATP quantification was performed using a commercial kit (Sigma) according to the recommended protocol. For metabolic profiling of Halo treated cells, mass spectrometry was performed on metabolites extracted from cell pellets. Briefly, cell pellets were washed and snap frozen in 1 ml 80% methanol. Samples were probe sonicated for 5 seconds, power level 3 (Fisher Scientific Model 100 Sonicator). 5 ul of internal standard (Isotopically labeled amino acids, 1.25 mM, PN MSK-A2-1.2, Cambridge Isotope Laboratories) was added to a 100 ul aliquot of supernatant. 10 ul of this solution was diluted in 990 ul of buffer containing 95% acetonitrile, 5% 20 mM ammonium carbonate (pH 9.8). Quality control samples (QCs) were prepared by pooling 100 μl of each sample. All samples including QCs, where then analyzed by selected reaction monitoring (SRM) using a Waters XBridge Amide 1.0×50 mm, 3.5 μm column and a 10 mM ammonium carbonate (pH 10) acetonitrile buffer system coupled with a Sciex Qtrap 5500 triple quadrupole linear ion trap tandem mass spectrometer. The data acquisition included 317 transitions. Data were captured using Analyst, version 1.6.2 software (Sciex); peak integration was performed using Skyline, version 4.1 (Pino et al., 2020). […]

CD8+ T cells [3] = assay: Seahorse and ATP quantification in halo-treated mouse CD8+ T cells; assay type: cell-based; conditions: for enhanced OXPHOS (basal OCR) in halo-treated cells: inhibitor added concurrent with Halofuginone (3-MA 2.5 mM)
[4] = Halo 50 ng/mL last 48 hours, vs vehicle

## CC[C@H]1/C=C/C=C/C[C@@H](C)[C@H](O)[C@@](C)(O)C(=O)[C@@H](C)[C@H](O)[C@@H](C)C(=O)[C@@H](C)[C@H](O)[C@@H](C)/C=C/C(=O)O[C@@H]2[C@H](C)[C@H](CC1)O[C@]1(CC[C@H](C)[C@H](C[C@@H](C)O)O1)[C@H]2C [oligomycin]
P14 CD8+ T cells
  IFN-γ in halo-treated cells: marked reduction

## O=C(CC1NCCCC1O)Cn1cnc2cc(Br)c(Cl)cc2c1=O (stereo not shown) [halofuginone]
CD8+ T cells [1]
  4-1BB expression (RNA): up-regulated
  Trm-associated genes, transcriptionally or translationally: very few of the Trm-associated genes were up-regulated
  electron transport chain (ETC) complex genes: increased both transcription and translation of all five complexes
  genes associated with glycolysis, TCA cycle, fatty acid oxidation: Increased enrichment of genes associated with glycolysis and the TCA cycle, but not fatty acid oxidation
  ribosomal-associated Bhlhe40 transcripts: marked increase
CD8+ T cells [1]; among Trm-associated genes
  CD69 gene expression: one of the most upregulated genes
CD8+ T cells [1]; panel of markers other than 4-1BB
  expression of costimulatory and co-inhibitory molecules (transcriptional, translational and protein level): not enhanced
Human CD8+ T cells; DMF5 TCR transduced, Halofuginone 12.5 ng/mL, day 5, majority of patients
  expression of 4-1BB, Granzyme B and CD98 in TCR+ T cells: increased expression
Human CD8+ T cells; Halo 12.5 ng/mL, 5 days
  OXPHOS: enhanced
  expression of 4-1BB and CD98: increasing
Human CD8+ T cells; Halofuginone 12.5 ng/mL added on days 0 and 2
  transduction efficiency of the DMF5 TCR: did not inhibit
P14 CD8+ T cells; Halo 50 ng/mL for the last 48 hours of IL-2 expansion, vs vehicle
  IFN-γ production: increased IFN-γ production
P14 CD8+ T cells; [4]
  CD98 expression: enhanced
  TNF-α and IL-2 production: to a lesser extent, increased
  granzyme B expression: significant increase
  polyfunctionality (co-expression of IFN-γ, TNF-α, IL-2): increased polyfunctionality
P14 CD8+ T cells; flow cytometry, halo vs vehicle
  surface expression of 4-1BB: increased percentage of cells expressing 4-1BB as well as a higher level of expression on a per cell basis
P14 CD8+ T cells; halo-treated cells vs vehicle
  autophagy (fluorescent staining of autophagosomes): increased evidence of autophagy
  p-mTOR: increase in p-mTOR
P14 CD8+ T cells; halo-treated cells, same as vehicle treated cells
  surface markers of Tcm lineage (CD62L, CD44, CD127, CD25): CD62^Lo, CD44^Hi CD127^Lo and CD25^Hi
P14 CD8+ T cells; halo-treated, unlike vehicle-treated control cells
  CD69+ CD103+ double-positive cells: induced a population of CD69^+ CD103^+ double-positive cells
CD8+ T cells [2]
  levels of amino acids: primarily up-regulated
CD8+ T cells [3]; [4]
  ATP levels: increase
  OCR (oxygen consumption rate): increase
  OCR:ECAR ratio: increase

## CCOC(=O)[C@@]1(CCCCCCOc2ccc(Cl)cc2)CO1 [etomoxir]
CD8+ T cells [3]; Etomoxir 4 μm injected in Seahorse
  effect on OCR in halo-treated cells: minimal effects

## Cn1cnc(N)c2ncnc1-2 [3MA]
P14 CD8+ T cells; cultured in the presence of 3MA 2.5 mM
  4-1BB or granzyme B expression in halo-treated cells: no difference
P14 CD8+ T cells
  IFN-γ in halo-treated cells: marked reduction
CD8+ T cells [3]; 3-MA 2.5 mM
  OXPHOS in vehicle-treated cells: no effect
CD8+ T cells [3]
  enhanced OXPHOS (basal OCR) in halo-treated cells: entirely abrogated

## NC1(C(=O)O)CC2CCC1C2 (stereo not shown) [BCH]
P14 CD8+ T cells; halo-treated cells plus BCH
  halo-induced p-mTOR increase in the presence of inhibitor: reversed
P14 CD8+ T cells; inhibitor added concurrent with Halofuginone (Rapamycin 20 nM)
  expression of 4-1BB, Granzyme B and IFN-γ in halo-treated cells: inhibition of expression
CD8+ T cells [3]
  enhanced OXPHOS (basal OCR) in halo-treated cells: did not affect
